BindingDB's records for doi:10.1111/j.1432-1033.1992.tb17043.x (Universit&Eacute, 1992)
Non-standard residues stand in square brackets, D forms with d. Residues, ends and D or L forms follow the SMILES beside them. ξ: configuration not given here. Ile(3ξ) = CCC(C)[C@H](N)C(=O)O

Target: T1, Pituitary adenylate cyclase-activating polypeptide (Homo sapiens, UniProt P18509)
T1 sequence (P18509 whole entry): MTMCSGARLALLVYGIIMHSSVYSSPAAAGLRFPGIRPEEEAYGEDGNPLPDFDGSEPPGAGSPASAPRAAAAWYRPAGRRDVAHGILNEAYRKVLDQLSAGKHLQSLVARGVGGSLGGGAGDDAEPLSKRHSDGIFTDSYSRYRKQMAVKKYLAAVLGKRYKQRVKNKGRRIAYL

SMILES | Ki
CCC(C)[C@H](NC(=O)CNC(=O)[C@@H](N)CC(=O)O)C(=O)N[C@@H](Cc1ccccc1)C(=O)N[C@H](C(=O)N[C@@H](CC(=O)O)C(=O)N[C@@H](CO)C(=O)N[C@@H](Cc1ccc(O)cc1)C(=O)N[C@@H](CO)C(=O)N[C@@H](CCCN=C(N)N)C(=O)N[C@@H](Cc1ccc(O)cc1)C(=O)N[C@@H](CCCN=C(N)N)C(=O)N[C@@H](CCCCN)C(=O)N[C@@H](CCC(N)=O)C(=O)N[C@@H](CCSC)C(=O)N[C@@H](C)C(=O)N[C@H](C(=O)N[C@@H](CCCCN)C(=O)N[C@@H](CCCCN)C(=O)N[C@@H](Cc1ccc(O)cc1)C(=O)N[C@@H](CC(C)C)C(=O)N[C@@H](C)C(=O)N[C@@H](C)C(=O)N[C@H](C(=O)N[C@@H](CC(C)C)C(N)=O)C(C)C)C(C)C)[C@@H](C)O (stereo not given in full) [PACAP(3-27)] (H-DG[Ile(3ξ)]FTDSYSRYRKQMAVKKYLAAVL-NH2) | 200 nM
CCC(C)[C@H](N)C(=O)N[C@@H](Cc1ccccc1)C(=O)N[C@H](C(=O)N[C@@H](CC(=O)O)C(=O)N[C@@H](CO)C(=O)N[C@@H](Cc1ccc(O)cc1)C(=O)N[C@@H](CO)C(=O)N[C@@H](CCCN=C(N)N)C(=O)N[C@@H](Cc1ccc(O)cc1)C(=O)N[C@@H](CCCN=C(N)N)C(=O)N[C@@H](CCCCN)C(=O)N[C@@H](CCC(N)=O)C(=O)N[C@@H](CCSC)C(=O)N[C@@H](C)C(=O)N[C@H](C(=O)N[C@@H](CCCCN)C(=O)N[C@@H](CCCCN)C(=O)N[C@@H](Cc1ccc(O)cc1)C(=O)N[C@@H](CC(C)C)C(=O)N[C@@H](C)C(=O)N[C@@H](C)C(=O)N[C@H](C(=O)N[C@@H](CC(C)C)C(N)=O)C(C)C)C(C)C)[C@@H](C)O (stereo not given in full) [PACAP(5-27)] (H-[Ile(3ξ)]FTDSYSRYRKQMAVKKYLAAVL-NH2) | 150 nM
CCC(C)[C@H](NC(=O)CNC(=O)[C@H](CC(=O)O)NC(=O)[C@@H](Cc1ccccc1)NC(=O)[C@H](Cc1cnc[nH]1)NC(C)=O)C(=O)N[C@@H](Cc1ccccc1)C(=O)N[C@H](C(=O)N[C@@H](CC(=O)O)C(=O)N[C@@H](CO)C(=O)N[C@@H](Cc1ccc(O)cc1)C(=O)N[C@@H](CO)C(=O)N[C@@H](CCCN=C(N)N)C(=O)N[C@@H](Cc1ccc(O)cc1)C(=O)N[C@@H](CCCN=C(N)N)C(=O)N[C@@H](CCCCN)C(=O)N[C@@H](CCC(N)=O)C(=O)N[C@@H](CCSC)C(=O)N[C@@H](C)C(=O)N[C@H](C(=O)N[C@@H](CCCCN)C(=O)N[C@@H](CCCCN)C(=O)N[C@@H](Cc1ccc(O)cc1)C(=O)N[C@@H](CC(C)C)C(=O)N[C@@H](C)C(=O)N[C@@H](C)C(=O)N[C@H](C(=O)N[C@@H](CC(C)C)C(N)=O)C(C)C)C(C)C)[C@@H](C)O (stereo not given in full) [[AcHis1,DPhe2]PACAP(1-27)] | 1000 nM
CCC(C)[C@H](NC(=O)CNC(=O)[C@H](CC(=O)O)NC(=O)[C@H](Cc1ccccc1)NC(=O)[C@H](Cc1cnc[nH]1)NC(C)=O)C(=O)N[C@@H](Cc1ccccc1)C(=O)N[C@H](C(=O)N[C@@H](CC(=O)O)C(=O)N[C@@H](CO)C(=O)N[C@@H](Cc1ccc(O)cc1)C(=O)N[C@@H](CO)C(=O)N[C@@H](CCCN=C(N)N)C(=O)N[C@@H](Cc1ccc(O)cc1)C(=O)N[C@@H](CCCN=C(N)N)C(=O)N[C@@H](CCCCN)C(=O)N[C@@H](CCC(N)=O)C(=O)N[C@@H](CCSC)C(=O)N[C@@H](C)C(=O)N[C@H](C(=O)N[C@@H](CCCCN)C(=O)N[C@@H](CCCCN)C(=O)N[C@@H](Cc1ccc(O)cc1)C(=O)N[C@@H](CC(C)C)C(=O)N[C@@H](C)C(=O)N[C@@H](C)C(=O)N[C@H](C(=O)N[C@@H](CC(C)C)C(N)=O)C(C)C)C(C)C)[C@@H](C)O (stereo not given in full) [[AcHis1,Phe2]PACAP(1-27)] | 100 nM
CCC(C)[C@H](NC(=O)CNC(=O)[C@H](CC(=O)O)NC(=O)[C@H](Cc1ccccc1)NC(=O)[C@H](Cc1cnc[nH]1)NC(C)=O)C(=O)N[C@@H](Cc1ccccc1)C(=O)N[C@H](C(=O)N[C@@H](CC(=O)O)C(=O)N[C@@H](CO)C(=O)N[C@@H](Cc1ccc(O)cc1)C(=O)N[C@@H](CO)C(=O)N[C@@H](CCCN=C(N)N)C(=O)N[C@@H](Cc1ccc(O)cc1)C(=O)N[C@@H](CCCN=C(N)N)C(=O)N[C@@H](CCCCN)C(=O)N[C@@H](CCC(N)=O)C(=O)N[C@@H](CCSC)C(=O)N[C@@H](C)C(=O)N[C@H](C(=O)N[C@@H](CCCCN)C(=O)N[C@@H](CCCCN)C(=O)N[C@@H](Cc1ccc(O)cc1)C(=O)N[C@@H](CC(C)C)C(=O)N[C@@H](C)C(=O)N[C@@H](C)C(=O)N[C@H](C(=O)N[C@@H](CC(C)C)C(=O)NCC(=O)N[C@@H](CCCCN)C(=O)N[C@@H](CCCN=C(N)N)C(=O)N[C@@H](Cc1ccc(O)cc1)C(=O)N[C@@H](CCCCN)C(=O)N[C@@H](CCC(N)=O)C(=O)N[C@@H](CCCN=C(N)N)C(=O)N[C@H](C(=O)N[C@@H](CCCCN)C(=O)N[C@@H](CC(N)=O)C(=O)N[C@@H](CCCCN)C(N)=O)C(C)C)C(C)C)C(C)C)[C@@H](C)O (stereo not given in full) [[AcHis1,Phe2]PACAP(1-38)] | 10 nM
CC[C@H](C)[C@H](NC(=O)CNC(=O)[C@H](CC(N)=O)NC(=O)[C@H](CO)NC(=O)[C@@H](N)Cc1cnc[nH]1)C(=O)N[C@@H](Cc1ccccc1)C(=O)N[C@H](C(=O)N[C@@H](CC(=O)O)C(=O)N[C@@H](CO)C(=O)N[C@@H](Cc1ccc(O)cc1)C(=O)N[C@@H](CO)C(=O)N[C@@H](CCCNC(=N)N)C(=O)N[C@@H](Cc1ccc(O)cc1)C(=O)N[C@@H](CCCNC(=N)N)C(=O)N[C@@H](CCCCN)C(=O)N[C@@H](CCC(N)=O)C(=O)N[C@@H](CCSC)C(=O)N[C@@H](C)C(=O)N[C@H](C(=O)N[C@@H](CCCCN)C(=O)N[C@@H](CCCCN)C(=O)N[C@@H](Cc1ccc(O)cc1)C(=O)N[C@@H](CC(C)C)C(=O)N[C@@H](C)C(=O)N[C@@H](C)C(=O)N[C@H](C(=O)N[C@@H](CC(C)C)C(N)=O)C(C)C)C(C)C)[C@@H](C)O [[Asn3]PACAP(1-27)] | 200 nM

Next, values leading:

Ki | SMILES
1.5 nM | CSCC[C@H](NC(=O)[C@H](CCC(N)=O)NC(=O)[C@H](CCCCN)NC(=O)[C@H](CCCNC(=N)N)NC(=O)[C@H](Cc1ccc(O)cc1)NC(=O)[C@H](CCCNC(=N)N)NC(=O)[C@H](CO)NC(=O)[C@H](Cc1ccc(O)cc1)NC(=O)[C@H](CO)NC(=O)[C@H](CC(=O)O)NC(=O)[C@@H](NC(=O)[C@@H](N)Cc1ccccc1)[C@@H](C)O)C(=O)N[C@@H](C)C(=O)N[C@H](C(=O)N[C@@H](CCCCN)C(=O)N[C@@H](CCCCN)C(=O)N[C@@H](Cc1ccc(O)cc1)C(=O)N[C@@H](CC(C)C)C(=O)N[C@@H](C)C(=O)N[C@@H](C)C(=O)N[C@H](C(=O)N[C@@H](CC(C)C)C(=O)NCC(=O)N[C@@H](CCCCN)C(=O)N[C@@H](CCCNC(=N)N)C(=O)N[C@@H](Cc1ccc(O)cc1)C(=O)N[C@@H](CCCCN)C(=O)N[C@@H](CCC(N)=O)C(=O)N[C@@H](CCCNC(=N)N)C(=O)N[C@H](C(=O)N[C@@H](CCCCN)C(=O)N[C@@H](CC(N)=O)C(=O)N[C@@H](CCCCN)C(N)=O)C(C)C)C(C)C)C(C)C
5 nM | CCC(C)[C@H](NC(=O)CN)C(=O)N[C@@H](Cc1ccccc1)C(=O)N[C@H](C(=O)N[C@@H](CC(=O)O)C(=O)N[C@@H](CO)C(=O)N[C@@H](Cc1ccc(O)cc1)C(=O)N[C@@H](CO)C(=O)N[C@@H](CCCN=C(N)N)C(=O)N[C@@H](Cc1ccc(O)cc1)C(=O)N[C@@H](CCCN=C(N)N)C(=O)N[C@@H](CCCCN)C(=O)N[C@@H](CCC(N)=O)C(=O)N[C@@H](CCSC)C(=O)N[C@@H](C)C(=O)N[C@H](C(=O)N[C@@H](CCCCN)C(=O)N[C@@H](CCCCN)C(=O)N[C@@H](Cc1ccc(O)cc1)C(=O)N[C@@H](CC(C)C)C(=O)N[C@@H](C)C(=O)N[C@@H](C)C(=O)N[C@H](C(=O)N[C@@H](CC(C)C)C(=O)NCC(=O)N[C@@H](CCCCN)C(=O)N[C@@H](CCCN=C(N)N)C(=O)N[C@@H](Cc1ccc(O)cc1)C(=O)N[C@@H](CCCCN)C(=O)N[C@@H](CCC(N)=O)C(=O)N[C@@H](CCCN=C(N)N)C(=O)N[C@H](C(=O)N[C@@H](CCCCN)C(=O)N[C@@H](CC(N)=O)C(=O)N[C@@H](CCCCN)C(N)=O)C(C)C)C(C)C)C(C)C)[C@@H](C)O (stereo not given in full) [PACAP(4-38)] (H-G[Ile(3ξ)]FTDSYSRYRKQMAVKKYLAAVLGKRYKQRVKNK-NH2)
5 nM | CCC(C)[C@H](N)C(=O)N[C@@H](Cc1ccccc1)C(=O)N[C@H](C(=O)N[C@@H](CC(=O)O)C(=O)N[C@@H](CO)C(=O)N[C@@H](Cc1ccc(O)cc1)C(=O)N[C@@H](CO)C(=O)N[C@@H](CCCN=C(N)N)C(=O)N[C@@H](Cc1ccc(O)cc1)C(=O)N[C@@H](CCCN=C(N)N)C(=O)N[C@@H](CCCCN)C(=O)N[C@@H](CCC(N)=O)C(=O)N[C@@H](CCSC)C(=O)N[C@@H](C)C(=O)N[C@H](C(=O)N[C@@H](CCCCN)C(=O)N[C@@H](CCCCN)C(=O)N[C@@H](Cc1ccc(O)cc1)C(=O)N[C@@H](CC(C)C)C(=O)N[C@@H](C)C(=O)N[C@@H](C)C(=O)N[C@H](C(=O)N[C@@H](CC(C)C)C(=O)NCC(=O)N[C@@H](CCCCN)C(=O)N[C@@H](CCCN=C(N)N)C(=O)N[C@@H](Cc1ccc(O)cc1)C(=O)N[C@@H](CCCCN)C(=O)N[C@@H](CCC(N)=O)C(=O)N[C@@H](CCCN=C(N)N)C(=O)N[C@H](C(=O)N[C@@H](CCCCN)C(=O)N[C@@H](CC(N)=O)C(=O)N[C@@H](CCCCN)C(N)=O)C(C)C)C(C)C)C(C)C)[C@@H](C)O (stereo not given in full) [PACAP(5-38)] (H-[Ile(3ξ)]FTDSYSRYRKQMAVKKYLAAVLGKRYKQRVKNK-NH2)
10 nM | CC[C@H](C)[C@H](NC(=O)CNC(=O)[C@H](CC(=O)O)NC(=O)[C@@H](Cc1ccccc1)NC(=O)[C@H](Cc1cnc[nH]1)NC(C)=O)C(=O)N[C@@H](Cc1ccccc1)C(=O)N[C@H](C(=O)N[C@@H](CC(=O)O)C(=O)N[C@@H](CO)C(=O)N[C@@H](Cc1ccc(O)cc1)C(=O)N[C@@H](CO)C(=O)N[C@@H](CCCN=C(N)N)C(=O)N[C@@H](Cc1ccc(O)cc1)C(=O)N[C@@H](CCCN=C(N)N)C(=O)N[C@@H](CCCCN)C(=O)N[C@@H](CCC(N)=O)C(=O)N[C@@H](CCSC)C(=O)N[C@@H](C)C(=O)N[C@H](C(=O)N[C@@H](CCCCN)C(=O)N[C@@H](CCCCN)C(=O)N[C@@H](Cc1ccc(O)cc1)C(=O)N[C@@H](CC(C)C)C(=O)N[C@@H](C)C(=O)N[C@@H](C)C(=O)N[C@H](C(=O)N[C@@H](CC(C)C)C(=O)NCC(=O)N[C@@H](CCCCN)C(=O)N[C@@H](CCCN=C(N)N)C(=O)N[C@@H](Cc1ccc(O)cc1)C(=O)N[C@@H](CCCCN)C(=O)N[C@@H](CCC(N)=O)C(=O)N[C@@H](CCCN=C(N)N)C(=O)N[C@H](C(=O)N[C@@H](CCCCN)C(=O)N[C@@H](CC(N)=O)C(=O)N[C@@H](CCCCN)C(N)=O)C(C)C)C(C)C)C(C)C)[C@@H](C)O [[AcHis1,DPhe2]PACAP(1-38)]
